Source: US11292801B2, “Calpain modulators and therapeutic uses thereof” (Blade Therapeutics, Inc., priority 2016, dated 2022)

What was measured:
[1] = biological target: T1, Human Calpain 1/NS1 (Homo sapiens, UniProt P07384); test: Biochemical inhibition of calpain 1, continuous fluorescence (FRET substrate) assay; conditions: mean, read-out: Human Calpain 1/NS1 IC50 (nM)_MEAN
T1 sequence (P07384 1-714): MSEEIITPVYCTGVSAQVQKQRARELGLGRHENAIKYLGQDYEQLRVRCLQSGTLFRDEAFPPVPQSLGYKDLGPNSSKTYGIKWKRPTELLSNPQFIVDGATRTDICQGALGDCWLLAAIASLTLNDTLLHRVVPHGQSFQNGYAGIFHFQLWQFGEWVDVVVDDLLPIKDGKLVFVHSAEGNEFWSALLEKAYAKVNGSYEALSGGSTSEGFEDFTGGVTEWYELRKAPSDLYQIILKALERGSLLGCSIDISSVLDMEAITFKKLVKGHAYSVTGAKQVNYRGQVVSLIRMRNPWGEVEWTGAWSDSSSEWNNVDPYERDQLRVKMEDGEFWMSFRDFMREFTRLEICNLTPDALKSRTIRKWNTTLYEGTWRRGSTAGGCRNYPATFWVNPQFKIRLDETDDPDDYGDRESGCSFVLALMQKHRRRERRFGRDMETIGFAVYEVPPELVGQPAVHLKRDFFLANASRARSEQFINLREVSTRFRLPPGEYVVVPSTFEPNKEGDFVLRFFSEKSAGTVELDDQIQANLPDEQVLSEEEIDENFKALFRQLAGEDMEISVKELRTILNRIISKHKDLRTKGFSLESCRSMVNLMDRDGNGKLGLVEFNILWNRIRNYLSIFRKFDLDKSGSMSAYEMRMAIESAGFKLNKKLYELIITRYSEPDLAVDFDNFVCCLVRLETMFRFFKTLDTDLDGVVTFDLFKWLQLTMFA
T1 sequence (P04632 1-268 partner): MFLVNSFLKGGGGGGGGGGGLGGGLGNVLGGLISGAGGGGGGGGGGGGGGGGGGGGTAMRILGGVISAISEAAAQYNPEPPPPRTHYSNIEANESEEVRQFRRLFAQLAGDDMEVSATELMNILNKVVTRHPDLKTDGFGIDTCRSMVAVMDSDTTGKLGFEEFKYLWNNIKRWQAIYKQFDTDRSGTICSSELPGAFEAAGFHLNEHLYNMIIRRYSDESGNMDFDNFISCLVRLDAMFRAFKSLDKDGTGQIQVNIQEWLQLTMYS
Experimental: (§1) Calpain 1, 2, and 9 activity and inhibition thereof are assessed by means of a continuous fluorescence assay. The SensoLyte 520 Calpain substrate (Anaspec Inc) is optimized for detecting calpain activity. This substrate contains a novel internally quenched 5-FAM/QXL™ 520 FRET pair. Calpains 1, 2, and 9 cleave the FRET substrate into two separate fragments resulting in an increase of 5-FAM fluorescence that is proportional to calpain activity.
(§2) Assays are typically setup in black 384-well plates using automated liquid handling as follows. Calpain assay base buffer typically contains 50 mM Tris, pH˜7.5, 100 mM NaCl and 1 mM DTT. Inhibitors are serially diluted in DMSO and used to setup 2× mixtures with calpains in the aforementioned buffer. After incubation at ambient temperature (25C), the reaction is initiated by adding a 2× mix of the fluorescent peptide substrate and CaCl2) (required for in-situ calpain activation) in the same buffer. Reaction progress curve data are typically collected for 10 min using excitation/emission wavelengths of 490 nm/520 nm on SpectraMax i3× or the FLIPR-Tetra plate readers (Molecular Devices Inc). Reaction rates were calculated from progress curve slopes typically over 1-5 min. Dose response curves (rate vs. log inhibitor concentration) were typically fit to a 4-parameter logistic function to extract IC50 values.

[2] = biological target: T2, Human Calpain 2/NS1 (Homo sapiens, UniProt P17655); test: Biochemical inhibition of calpain 2, continuous fluorescence (FRET substrate) assay; conditions: mean, read-out: Human Calpain 2/NS1 IC50 (nM)_MEAN
T2 sequence (P17655 1-700): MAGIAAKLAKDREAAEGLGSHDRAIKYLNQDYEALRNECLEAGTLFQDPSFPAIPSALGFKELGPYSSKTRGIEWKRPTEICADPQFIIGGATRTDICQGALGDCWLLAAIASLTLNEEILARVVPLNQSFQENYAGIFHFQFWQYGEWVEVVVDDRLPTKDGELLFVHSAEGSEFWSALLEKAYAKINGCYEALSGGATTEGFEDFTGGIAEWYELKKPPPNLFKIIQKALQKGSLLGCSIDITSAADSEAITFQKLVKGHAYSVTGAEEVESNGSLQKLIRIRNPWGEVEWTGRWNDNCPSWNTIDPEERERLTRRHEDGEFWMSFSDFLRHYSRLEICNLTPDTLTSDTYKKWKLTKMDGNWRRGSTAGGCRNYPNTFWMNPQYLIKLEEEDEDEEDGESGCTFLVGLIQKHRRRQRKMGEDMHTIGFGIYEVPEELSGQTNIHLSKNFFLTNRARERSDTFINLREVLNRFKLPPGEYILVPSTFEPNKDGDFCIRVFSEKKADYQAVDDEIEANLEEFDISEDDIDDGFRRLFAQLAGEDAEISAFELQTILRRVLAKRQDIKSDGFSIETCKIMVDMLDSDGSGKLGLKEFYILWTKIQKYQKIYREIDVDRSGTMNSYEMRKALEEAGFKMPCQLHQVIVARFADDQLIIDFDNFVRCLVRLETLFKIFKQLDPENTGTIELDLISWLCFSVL
T2 sequence (P04632 1-268 partner): T1 sequence (P04632 1-268 partner)
Experimental: as §1, §2

[3] = biological target: T3, Human Calpain 9/NS1 (Homo sapiens, UniProt O14815); test: Biochemical inhibition of calpain 9, continuous fluorescence (FRET substrate) assay; conditions: mean, read-out: Human Calpain 9/NS1 IC50 (nM)_MEAN
T3 sequence (O14815 1-690): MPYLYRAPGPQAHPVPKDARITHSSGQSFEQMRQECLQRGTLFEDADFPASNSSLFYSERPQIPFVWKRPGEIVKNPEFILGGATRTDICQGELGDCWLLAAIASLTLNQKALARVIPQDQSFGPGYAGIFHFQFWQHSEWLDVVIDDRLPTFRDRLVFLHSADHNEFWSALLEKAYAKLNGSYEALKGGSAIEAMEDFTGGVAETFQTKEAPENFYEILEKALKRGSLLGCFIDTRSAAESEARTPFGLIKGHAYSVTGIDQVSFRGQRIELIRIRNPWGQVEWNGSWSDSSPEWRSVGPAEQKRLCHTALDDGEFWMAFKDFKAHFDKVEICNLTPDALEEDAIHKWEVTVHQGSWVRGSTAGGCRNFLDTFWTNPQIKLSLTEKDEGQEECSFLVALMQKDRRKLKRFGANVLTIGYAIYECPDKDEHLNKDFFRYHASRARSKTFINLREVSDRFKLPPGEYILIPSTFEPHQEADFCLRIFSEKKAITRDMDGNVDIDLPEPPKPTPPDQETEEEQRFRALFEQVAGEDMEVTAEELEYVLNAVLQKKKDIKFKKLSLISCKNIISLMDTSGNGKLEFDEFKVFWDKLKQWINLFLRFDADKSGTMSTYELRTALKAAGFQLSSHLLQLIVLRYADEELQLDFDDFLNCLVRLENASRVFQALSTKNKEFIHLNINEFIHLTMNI
T3 sequence (P04632 1-268 partner): T1 sequence (P04632 1-268 partner)
Experimental: as §1, §2

Row | Structure (SMILES) | IC50 [1] [nM] | IC50 [2] [nM] | IC50 [3] [nM]
1 | O=C[C@@H]1CC=CCCOc2ccnc(n2)-c2ccccc2C(=O)N1 [Compound 39, (S)-3-Oxo-11-oxa-4-aza-1(2,4)-pyrimidina-2(1,2)-benzenacyclo undecaphan-7-ene-5-carbaldehyde] | 3000 to 10000 | < 3000 | < 3000
2 | O=C[C@@H]1CC=CCCOc2nccc(n2)-c2ccccc2C(=O)N1 [Compound 40, (S)-11-Oxo-3-oxa-10-aza-1(2,3)-pyridina-2(1,3)-benzena-cycloundecaphane-9-carbaldehyde] | 3000 to 10000 | < 3000 | < 3000
3 | O=C[C@@H]1CC=CCCCOCc2ccccc2C(=O)N1 [Compound 41, (S)-11-Oxo-1,3,4,5,8,9,10,11-octahydrobenzo[c][1]oxa[6]azacyclotridecine-9-carbaldehyde] | > 10000 | < 3000 | < 3000
4 | O=C[C@@H]1CCCCCCOCc2ccccc2C(=O)N1 [Compound 42, (S)-11-Oxo-1,3,4,5,6,7,8,9,10,11-decahydrobenzo[c][1]oxa[6]azacyclotridecine-9-carbaldehyde] | > 10000 | < 3000 | < 3000
5 | O=C[C@@H]1CCCCOCCOCc2ccccc2C(=O)N1 [Compound 43, (S)-12-Oxo-1,3,4,6,7,8,9,10,11,12-decahydrobenzo[f][1,4]dioxa[9]aza-cyclotetradecine-10-carbaldehyde] | > 10000 | < 3000 | < 3000
6 | CCNC(=O)C(=O)[C@@H]1Cc2ccc(cc2)OCCCCOc2ccc3c(cnn3-c3ncccc3C(=O)N1)c2 [Compound 47, N-ethyl-2-oxo-2-((5S)-3-oxo-1H-8,13-dioxa-4-aza-1(1,5)-indazola-2(2,3)-pyridina-7(1,4)-benzenacyclotridecaphane-5-yl)acetamide] | < 3000 | < 3000 | < 3000
7 | O=C[C@@H]1C/C=C/CCCCCc2cccnc2C(=O)N1 [Compound 48, (S,E)-15-Oxo-6,7,8,9,12,13,14,15-octahydro-5h-pyrido[2,3-c][1]aza-cyclotridecine-13-carbaldehyde] | > 10000 | 3000 to 10000 | < 3000
8 | O=C[C@@H]1CCCCCCCCc2cccnc2C(=O)N1 [Compound 49, (S)-15-Oxo-6,7,8,9,10,11,12,13,14,15-decahydro-5h-pyrido[2,3-c][1]aza-cyclotridecine-13-carbaldehyde] | > 10000 | 3000 to 10000 | < 3000
9 | O=C[C@@H]1CC=CCCCCCc2ncccc2C(=O)N1 [Compound 50, (S)-5-Oxo-6,7,8,11,12,13,14,15-octahydro-5h-pyrido[3,2-c][1]aza-cyclotridecine-7-carbaldehyde] | > 10000 | 3000 to 10000 | < 3000
10 | CC(C)NC(=O)C(=O)[C@@H]1CCCCOCCOCc2ccccc2C(=O)N1 [Compound 52, (S)—N-isopropyl-2-oxo-2-(12-oxo-1,3,4,6,7,8,9,10,11,12-decahydrobenzo[f][1,4]dioxa[9]azacyclotetradecin-10-yl)acetamide] | > 10000 | > 10000 | > 10000
11 | CCCCNC(=O)C(=O)[C@@H]1CCCCOCCOCc2ccccc2C(=O)N1 [Compound 53, (S)—N-butyl-2-oxo-2-(12-oxo-1,3,4,6,7,8,9,10,11,12-decahydrobenzo[f][1,4]dioxa[9]azacyclotetradecin-10-yl)acetamide] | > 10000 | > 10000 | < 3000

More lines, now with the values ahead:

Row | IC50 [1] [nM] | IC50 [2] [nM] | IC50 [3] [nM] | Structure (SMILES)
12 | < 3000 | < 3000 | < 3000 | O=C[C@@H]1Cc2cccc(c2)C=CCCOc2cccc(c2)-c2ncccc2C(=O)N1 [Compound 36, (S)-3-Oxo-12-oxa-4-aza-2(2,3)-pyridina-1,7(1,3)-dibenzenacyclododecaphan-8-ene-5-carbaldehyde]
13 | < 3000 | < 3000 | < 3000 | O=C[C@@H]1CC=CCCOc2cccc(c2)-c2ncccc2C(=O)N1 [Compound 37, (S)-11-Oxo-3-oxa-10-aza-1(2,3)-pyridina-2(1,3)-benzenacycloundecaphan-6-ene-9-carbaldehyde]
14 | < 3000 | < 3000 | < 3000 | O=C[C@@H]1CCCCCOc2cccc(c2)-c2ncccc2C(=O)N1 [Compound 38, (S)-11-Oxo-3-oxa-10-aza-1(2,3)-pyridina-2(1,3)-benzenacycloundecaphane-9-carbaldehyde]
15 | < 3000 | < 3000 | < 3000 | O=C[C@@H]1Cc2ccc(cc2)OC/C=C/COc2cccc(c2)-c2ccn(n2)-c2ncccc2C(=O)N1 [Compound 44, (2^2E,6S,11E)-4-oxo-2^1H-9,14-dioxa-5-aza-3(2,3)-pyridina-2(3,1)-pyrazola-1(1,3),8(1,4)-dibenzenacyclotetradecaphan-11-ene-6-carbaldehyde]
16 | < 3000 | < 3000 | < 3000 | CCNC(=O)C(=O)[C@@H]1Cc2ccc(cc2)OCCCCOc2cccc(c2)-c2ccn(n2)-c2ncccc2C(=O)N1 [Compound 45, N-ethyl-2-oxo-2-((6S,E)-4-oxo-2^1H-9,14-dioxa-5-aza-3(2,3)-pyridina-2(3,1)-pyrazola-1(1,3),8(1,4)-dibenzenacyclotetradecaphane-6-yl)acetamide]
17 | < 3000 | < 3000 | < 3000 | O=C[C@@H]1Cc2ccc(cc2)OCCCCOc2cccc(c2)-c2ccn(n2)-c2ncccc2C(=O)N1 [Compound 46, (6S,E)-4-oxo-2^1H-9,14-dioxa-5-aza-3(2,3)-pyridina-2(3,1)-pyrazola-1(1,3),8(1,4)-dibenzenacyclotetradecaphane-6-carbaldehyde]
